Measured values reported in patent publication US11447466B2, “Substituted indole compounds useful as inhibitors of TLR7/8/9” (BRISTOL-MYERS SQUIBB COMPANY, priority 2017, dated 2022).

Tests used:
Format in all cases: cell-based
[1] = target: T1, human TLR9 (Homo sapiens, UniProt Q9NR96); assay: TLR9 inhibition reporter assay (HEK-Blue SEAP reporter, ODN2006 stimulation); details: HEK-Blue cells overexpressing human TLR9, SEAP reporter, ODN2006 5 nM, 22 hour incubation
T1 construct: host or cells: HEK-Blue cells
T1 sequence (Q9NR96 26-1032): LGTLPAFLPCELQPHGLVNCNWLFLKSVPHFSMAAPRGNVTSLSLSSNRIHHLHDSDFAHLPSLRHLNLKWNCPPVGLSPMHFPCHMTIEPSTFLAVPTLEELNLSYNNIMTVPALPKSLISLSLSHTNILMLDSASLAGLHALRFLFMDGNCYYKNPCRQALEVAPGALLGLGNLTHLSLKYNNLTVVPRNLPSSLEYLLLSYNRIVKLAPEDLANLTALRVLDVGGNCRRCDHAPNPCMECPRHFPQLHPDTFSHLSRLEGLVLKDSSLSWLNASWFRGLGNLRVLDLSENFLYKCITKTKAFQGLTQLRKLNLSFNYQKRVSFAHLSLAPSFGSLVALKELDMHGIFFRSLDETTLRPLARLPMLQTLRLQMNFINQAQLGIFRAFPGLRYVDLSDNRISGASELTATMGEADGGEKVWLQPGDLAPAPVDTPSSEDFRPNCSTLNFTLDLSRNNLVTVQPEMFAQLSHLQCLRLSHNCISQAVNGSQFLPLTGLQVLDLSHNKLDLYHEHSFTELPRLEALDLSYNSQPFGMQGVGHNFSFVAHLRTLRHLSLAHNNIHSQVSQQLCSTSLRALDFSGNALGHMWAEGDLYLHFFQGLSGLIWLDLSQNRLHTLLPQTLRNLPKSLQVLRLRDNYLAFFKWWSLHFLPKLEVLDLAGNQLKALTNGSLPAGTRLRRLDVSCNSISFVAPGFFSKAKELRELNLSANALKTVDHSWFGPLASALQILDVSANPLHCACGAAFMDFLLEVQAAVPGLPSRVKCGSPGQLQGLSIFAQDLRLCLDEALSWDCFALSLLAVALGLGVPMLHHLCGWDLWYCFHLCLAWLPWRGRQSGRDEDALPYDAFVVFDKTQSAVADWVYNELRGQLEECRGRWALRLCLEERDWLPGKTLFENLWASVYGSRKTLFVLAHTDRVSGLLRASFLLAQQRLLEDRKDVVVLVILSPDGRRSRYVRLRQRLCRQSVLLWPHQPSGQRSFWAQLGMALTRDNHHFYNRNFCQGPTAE
In short: (§1)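 Human TLR7/8/9 HEK-Blue reporter lines; dose range 0.05 nM–50 μM; 30 min RT preincubation; stimulus gardiquimod 7.5 μM / R848 15.9 μM / ODN2006 5 nM respectively; 22 h, 37 °C; SEAP detected colorimetrically.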

[2] = target: T2, human TLR8 (Homo sapiens, UniProt Q9NR97); assay: TLR8 inhibition reporter assay (HEK-Blue SEAP reporter, R848 stimulation); details: HEK-Blue cells overexpressing human TLR8, SEAP reporter, R848 15.9 μM, 22 hour incubation
T2 construct: host or cells: HEK-Blue cells
T2 sequence (Q9NR97 27-1041): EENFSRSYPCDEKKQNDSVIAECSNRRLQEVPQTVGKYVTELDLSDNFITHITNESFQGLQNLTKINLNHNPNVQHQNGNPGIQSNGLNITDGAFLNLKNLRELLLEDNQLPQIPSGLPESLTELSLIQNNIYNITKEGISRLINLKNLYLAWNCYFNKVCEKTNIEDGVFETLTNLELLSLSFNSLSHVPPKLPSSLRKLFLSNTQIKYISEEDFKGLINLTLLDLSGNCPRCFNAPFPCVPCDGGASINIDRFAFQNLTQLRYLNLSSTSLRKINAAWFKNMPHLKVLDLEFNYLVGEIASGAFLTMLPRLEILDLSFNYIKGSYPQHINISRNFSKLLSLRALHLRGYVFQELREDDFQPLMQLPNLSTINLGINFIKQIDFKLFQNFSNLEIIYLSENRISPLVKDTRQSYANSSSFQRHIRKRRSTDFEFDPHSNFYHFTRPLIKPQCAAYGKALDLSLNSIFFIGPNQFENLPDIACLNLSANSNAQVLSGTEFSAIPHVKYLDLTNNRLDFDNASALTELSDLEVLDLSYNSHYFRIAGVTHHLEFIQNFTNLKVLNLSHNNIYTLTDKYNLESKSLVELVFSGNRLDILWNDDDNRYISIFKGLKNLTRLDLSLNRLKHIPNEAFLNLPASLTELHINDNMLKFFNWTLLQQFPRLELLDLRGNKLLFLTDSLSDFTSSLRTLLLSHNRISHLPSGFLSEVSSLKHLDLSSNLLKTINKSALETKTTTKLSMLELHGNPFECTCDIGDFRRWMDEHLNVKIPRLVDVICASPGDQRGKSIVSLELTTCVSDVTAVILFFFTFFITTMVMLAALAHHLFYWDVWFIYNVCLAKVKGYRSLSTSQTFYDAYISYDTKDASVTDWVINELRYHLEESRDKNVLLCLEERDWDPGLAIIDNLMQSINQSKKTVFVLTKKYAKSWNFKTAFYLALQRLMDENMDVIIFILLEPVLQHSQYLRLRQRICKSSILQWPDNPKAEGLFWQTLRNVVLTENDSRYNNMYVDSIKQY
In short: as §1

[3] = target: T3, human TLR7 (Homo sapiens, UniProt Q9NYK1); assay: TLR7 inhibition reporter assay (HEK-Blue SEAP reporter, gardiquimod stimulation); details: HEK-Blue cells overexpressing human TLR7, SEAP reporter, gardiquimod 7.5 μM, 22 hour incubation
T3 construct: host or cells: HEK-Blue cells
T3 sequence (Q9NYK1 27-1049): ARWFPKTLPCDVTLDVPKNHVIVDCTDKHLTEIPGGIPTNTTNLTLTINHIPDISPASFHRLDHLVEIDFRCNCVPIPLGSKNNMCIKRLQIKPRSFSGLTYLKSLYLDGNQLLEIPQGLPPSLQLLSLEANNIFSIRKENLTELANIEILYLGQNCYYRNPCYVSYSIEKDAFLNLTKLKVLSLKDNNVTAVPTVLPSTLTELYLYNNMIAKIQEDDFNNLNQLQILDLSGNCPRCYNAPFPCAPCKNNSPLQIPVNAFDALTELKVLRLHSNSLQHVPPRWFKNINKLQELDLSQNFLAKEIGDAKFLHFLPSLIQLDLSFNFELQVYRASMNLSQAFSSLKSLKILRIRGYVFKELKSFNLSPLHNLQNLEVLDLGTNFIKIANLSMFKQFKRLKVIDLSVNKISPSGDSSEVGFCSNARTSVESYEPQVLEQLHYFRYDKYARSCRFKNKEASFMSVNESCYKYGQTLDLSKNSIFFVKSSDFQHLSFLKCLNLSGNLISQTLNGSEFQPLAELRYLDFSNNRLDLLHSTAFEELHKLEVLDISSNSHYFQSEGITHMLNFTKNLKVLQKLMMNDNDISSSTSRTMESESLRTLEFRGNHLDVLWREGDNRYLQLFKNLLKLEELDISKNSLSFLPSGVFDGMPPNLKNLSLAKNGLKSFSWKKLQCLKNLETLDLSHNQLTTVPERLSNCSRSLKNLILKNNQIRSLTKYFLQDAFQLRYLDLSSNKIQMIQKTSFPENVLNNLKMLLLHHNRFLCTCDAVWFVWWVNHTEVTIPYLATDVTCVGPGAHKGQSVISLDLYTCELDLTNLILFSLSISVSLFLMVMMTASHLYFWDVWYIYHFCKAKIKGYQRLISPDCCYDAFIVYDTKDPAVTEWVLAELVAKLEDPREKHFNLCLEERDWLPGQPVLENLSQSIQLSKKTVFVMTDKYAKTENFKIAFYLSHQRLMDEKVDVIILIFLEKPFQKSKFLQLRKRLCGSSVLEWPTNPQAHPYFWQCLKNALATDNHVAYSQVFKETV
In short: as §1

| SMILES | IC50 [1] | IC50 [2] | IC50 [3] |
| --- | --- | --- | --- |
| CCn1cc(-c2[nH]c3ccc(C4CCNCC4)cc3c2C(C)C)c(C)c(C)c1=O [Example 26, 1-ethyl-5-(3-isopropyl-5-(piperidin-4-yl)-1H-indol-2-yl)-3,4-dimethylpyridin-2(1H)-one] | 1860 nM | 8.9 nM | 12 nM |
| COCCN1CCC(c2ccc3[nH]c(-c4cc(-c5cncnc5)c(=O)n(C)c4)c(C(C)C)c3c2)CC1 [Example 103, 5-(3-isopropyl-5-(1-(2-methoxyethyl)piperidin-4-yl)-1H-indol-2-yl)-1-methyl-3-(pyrimidin-5-yl)pyridin-2(1H)-one] | 2080 nM | 1.3 nM | 9.6 nM |
| COc1cc(-c2[nH]c3ccc(C4CCNCC4)cc3c2C(C)C)cn(C)c1=O [Example 20, 5-(3-isopropyl-5-(piperidin-4-yl)-1H-indol-2-yl)-3-methoxy-1-methylpyridin-2(1H)-one] | 1790 nM | 17 nM | 6 nM |
| Cc1c(-c2[nH]c3ccc(C4CCN(CCCC(F)(F)F)CC4)cc3c2C(C)C)cn(C)c(=O)c1Cl [Example 105, 3-chloro-5-(3-isopropyl-5-(1-(4,4,4-trifluorobutyl)piperidin-4-yl)-1H-indol-2-yl)-1,4-dimethylpyridin-2(1H)-one] | 5520 nM | 10.7 nM | 5.1 nM |
| CCc1cc(-c2[nH]c3ccc(C4CCNCC4)cc3c2C(C)C)c(C)n(C)c1=O [Example 25, 3-ethyl-5-(3-isopropyl-5-(piperidin-4-yl)-1H-indol-2-yl)-1,6-dimethylpyridin-2(1H)-one] | 1370 nM | 7.8 nM | 40.3 nM |
| Cc1c(-c2[nH]c3ccc(C4CCN(CC5CCOCC5)CC4)cc3c2C(C)C)cn(C)c(=O)c1Cl [Example 93, 3-chloro-5-(3-isopropyl-5-(1-((tetrahydro-2H-pyran-4-yl)methyl)piperidin-4-yl)-1H-indol-2-yl)-1,4-dimethylpyridin-2(1H)-one] | 5800 nM | 4.9 nM | 5 nM |
| CNC(=O)c1cccc(-c2cc(-c3[nH]c4ccc(C5CCNCC5)cc4c3C(C)C)cn(C)c2=O)c1 [Example 59, 3-(5-(3-isopropyl-5-(piperidin-4-yl)-1H-indol-2-yl)-1-methyl-2-oxo-1,2-dihydropyridin-3-yl)-N-methylbenzamide] | 5850 nM | 270 nM | 46.6 nM |
| Cc1c(-c2[nH]c3ccc(C4CCN(CCC(C)C)CC4)cc3c2C(C)C)cn(C)c(=O)c1Cl [Example 91, 3-chloro-5-(5-(1-isopentylpiperidin-4-yl)-3-isopropyl-1H-indol-2-yl)-1,4-dimethylpyridin-2(1H)-one] | 4390 nM | 5 nM | 2.6 nM |
| Cc1c(-c2[nH]c3ccc(C4CCN(C(C)C(N)=O)CC4)cc3c2C(C)C)cn(C)c(=O)c1Cl (stereo not drawn) [Example 156, 2-(4-(2-(5-chloro-1,4-dimethyl-6-oxo-1,6-dihydropyridin-3-yl)-3-isopropyl-1H-indol-5-yl)piperidin-1-yl)propanamide] | 11800 nM | 7.4 nM | 4.3 nM |
| Cc1cc(-c2[nH]c3ccc(C4CCNCC4)cc3c2C(C)C)nn(C)c1=O [Example 11, 6-(3-isopropyl-5-(piperidin-4-yl)-1H-indol-2-yl)-2,4-dimethylpyridazin-3(2H)-one] | 4850 nM | 3.3 nM | 5.3 nM |
| CCCn1cc(CN2CCC(c3ccc4[nH]c(-c5cc(C)c(=O)n(C)c5)c(C(C)C)c4c3)CC2)cn1 [Example 228, 5-(3-isopropyl-5-(1-((1-propyl-1H-pyrazol-4-yl)methyl)piperidin-4-yl)-1H-indol-2-yl)-1,3-dimethylpyridin-2(1H)-one] | 4270 nM | 4.3 nM | 3.6 nM |
| COCCOCCOCCN1CCC(c2ccc3[nH]c(-c4cn(C)c(=O)c(Cl)c4C)c(C(C)C)c3c2)CC1 [Example 98, 3-chloro-5-(3-isopropyl-5-(1-(2-(2-(2-methoxyethoxy)ethoxy)ethyl)piperidin-4-yl)-1H-indol-2-yl)-1,4-dimethylpyridin-2(1H)-one] | 8750 nM | 10.4 nM | 20.6 nM |
| Cc1cc(-c2[nH]c3ccc(C4CCN(CC(C)C)CC4)cc3c2C(C)C)cn(Cc2ccccc2)c1=O [Example 113, 1-benzyl-5-(5-(1-isobutylpiperidin-4-yl)-3-isopropyl-1H-indol-2-yl)-3-methylpyridin-2(1H)-one] | 2190 nM | 70.7 nM | 26.4 nM |
| Cc1cc(-c2[nH]c3ccc(C4CCN(C(C)c5cnn(C)c5)CC4)cc3c2C(C)C)cn(C)c1=O (stereo not drawn) [Example 269, 5-(3-isopropyl-5-(1-(1-(1-methyl-1H-pyrazol-4-yl)ethyl)piperidin-4-yl)-1H-indol-2-yl)-1,3-dimethylpyridin-2(1H)-one] | 5900 nM | 4.6 nM | 35.5 nM |
